This data set deals with albumin (Homo sapiens, UniProt P02768). Nature of the data set: Percentage plasma protein binding towards human serum albumin. Conditions: read-out: PB (converted). The data set is classed as cell-free.
Chain of albumin (P02768 whole entry): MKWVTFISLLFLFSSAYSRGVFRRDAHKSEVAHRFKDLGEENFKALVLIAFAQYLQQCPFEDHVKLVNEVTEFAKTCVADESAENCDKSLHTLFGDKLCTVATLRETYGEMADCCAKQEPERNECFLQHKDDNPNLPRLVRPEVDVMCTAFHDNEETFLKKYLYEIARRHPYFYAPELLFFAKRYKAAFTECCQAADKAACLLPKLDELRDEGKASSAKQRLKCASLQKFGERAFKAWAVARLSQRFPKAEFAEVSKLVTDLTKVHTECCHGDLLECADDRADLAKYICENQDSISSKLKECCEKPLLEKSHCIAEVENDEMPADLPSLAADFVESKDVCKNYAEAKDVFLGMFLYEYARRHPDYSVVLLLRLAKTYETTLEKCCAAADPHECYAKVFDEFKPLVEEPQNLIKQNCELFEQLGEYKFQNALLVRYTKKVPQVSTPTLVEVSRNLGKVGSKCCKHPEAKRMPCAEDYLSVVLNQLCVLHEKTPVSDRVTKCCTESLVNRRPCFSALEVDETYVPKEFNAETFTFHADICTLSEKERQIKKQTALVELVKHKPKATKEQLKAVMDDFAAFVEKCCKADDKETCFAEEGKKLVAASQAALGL
For the molecule `CC1=C(CC(=O)O)c2cc(F)ccc2/C1=C\c1ccc([S+](C)[O-])cc1` (stereo unspecified), the fraction unbound is 0.06.

As for `CC(C)Cc1ccc([C@@H](C)C(=O)NCCCN(C)C)cc1`, the fraction unbound is 0.249.

For `CC(Cc1ccc([C@@H](C)C(=O)NS(C)(=O)=O)cc1)C(=O)O` (stereo partly specified), the fraction unbound is 0.298.

Consider `C[C@@H](C(=O)NCCN1CCCC1)c1ccc(OS(=O)(=O)C(F)(F)F)cc1`, for which the fraction unbound was 0.3.

As for `CC(C)Cc1ccc([C@@H](C)C(=O)NCCCN2CCCCC2)cc1`, the fraction unbound was 0.149.

Take `CC(C)Cc1ccc([C@@H](C)C(=O)N[C@H](C)C(=O)O)cc1`: the fraction unbound is 0.04.

Turning to `COc1ccc2c(c1)CN(c1ccc(C(C)C(=O)O)cc1)C2=O` (stereo unspecified), the fraction unbound was 0.02.

Regarding `C[C@@H](C(=O)NCCCN1CCCC1)c1ccc(OS(=O)(=O)C(F)(F)F)cc1`, the fraction unbound was 0.38.

`C[C@@H](C(N)=O)c1ccc(OS(=O)(=O)C(F)(F)F)cc1`: the fraction unbound was 0.08.

`CC(C)Cc1ccc([C@@H](C)C(=O)NCCOCCO)cc1`: the fraction unbound is 0.169.

Turning to `CCCNC(=O)NS(=O)(=O)c1ccc(Cl)cc1` [CHLORPROPAMIDE], the fraction unbound is 0.04.

On to `CC(C(=O)O)c1ccc(-c2ccccc2)c(F)c1` (stereo unspecified) [FLURBIPROFEN], for which the fraction unbound is 0.005.

Consider `NS(=O)(=O)c1cc2c(cc1Cl)NCNS2(=O)=O` [HYDROCHLOROTHIAZIDE], for which the fraction unbound is 0.42.

Take `O=C(c1ccccc1)c1ccc2n1CCC2C(=O)O` (stereo unspecified) [KETOROLAC]: the fraction unbound was 0.008.

As for `C[C@@H](C(=O)NS(C)(=O)=O)c1ccc(OS(=O)(=O)C(F)(F)F)cc1` [LADARIXIN], the fraction unbound is 0.002.

For the molecule `CS(=O)(=O)Nc1ccc([N+](=O)[O-])cc1Oc1ccccc1` [NIMESULIDE], the fraction unbound was 0.1.

Regarding `CC(C)Cc1ccc([C@@H](C)C(=O)NS(C)(=O)=O)cc1` [REPARIXIN], the fraction unbound was 0.001.

As for `CC(C)NCC(O)c1ccc(NS(C)(=O)=O)cc1` (stereo unspecified) [SOTALOL], the fraction unbound was 0.825.

`Cc1ccc(S(=O)(=O)NC(=O)NN2CCCCCC2)cc1` [TOLAZAMIDE]: the fraction unbound is 0.03.

For `Cc1ccc(C(=O)c2ccc(CC(=O)O)n2C)cc1` [TOLMETIN], the fraction unbound was 0.004.

As to `Cc1cc(CC(=O)O)n(C)c1C(=O)c1ccc(Cl)cc1` [ZOMEPIRAC], the fraction unbound was 0.015.

For the origin of these results see ChEMBL document CHEMBL1143569, “Predicting human serum albumin affinity of interleukin-8 (CXCL8) inhibitors by 3D-QSPR approach” (J Med Chem, 2005).
